Test results as given in patent publication US9926297B2, “Bicyclic AZA compounds as muscarinic M1 receptor and/or M4 receptor agonists” (Heptares Therapeutics Limited, priority 2014, dated 2018).

Experiments:
[1] = target: T1, human muscarinic M4 receptor (Homo sapiens, UniProt P08173); test: Alphascreen Surefire phospho-ERK1/2 functional assay, M4; format: cell-based; settings: for EC50: phospho-ERK1/2, * = variable results, read-out: pEC50 M4 (converted); for Emax: CHO, read-out: % Emax cf. ACh, M4, CHO cells stably expressing human M4
T1 construct: expressed in transfected cells
T1 sequence (P08173 1-479): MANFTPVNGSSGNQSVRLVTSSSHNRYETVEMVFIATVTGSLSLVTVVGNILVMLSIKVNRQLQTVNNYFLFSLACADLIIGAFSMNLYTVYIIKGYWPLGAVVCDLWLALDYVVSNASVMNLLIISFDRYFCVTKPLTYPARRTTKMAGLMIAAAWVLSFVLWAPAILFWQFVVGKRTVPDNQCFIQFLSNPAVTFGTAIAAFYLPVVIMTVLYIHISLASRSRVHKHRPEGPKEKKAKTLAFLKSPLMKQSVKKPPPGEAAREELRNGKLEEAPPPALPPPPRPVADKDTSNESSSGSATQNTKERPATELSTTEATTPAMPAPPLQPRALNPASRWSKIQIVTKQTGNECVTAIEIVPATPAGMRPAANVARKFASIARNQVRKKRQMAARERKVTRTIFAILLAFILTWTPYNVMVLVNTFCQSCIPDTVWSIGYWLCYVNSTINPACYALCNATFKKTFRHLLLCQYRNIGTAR

[2] = target: T2, human muscarinic M1 receptor (Homo sapiens, UniProt P11229); test: Alphascreen Surefire phospho-ERK1/2 functional assay, M1; format: cell-based; settings: for EC50 / % Emax cf. ACh, M1: CHO cells stably expressing human M1; for EC50: phospho-ERK1/2, * = variable results, read-out: pEC50 M1 (converted); for Emax: CHO, read-out: % Emax cf. ACh, M1, CHO cells stably expressing human M1; for Emax / % Emax cf. ACh, M1: relative to ACh
T2 sequence (P11229 1-460): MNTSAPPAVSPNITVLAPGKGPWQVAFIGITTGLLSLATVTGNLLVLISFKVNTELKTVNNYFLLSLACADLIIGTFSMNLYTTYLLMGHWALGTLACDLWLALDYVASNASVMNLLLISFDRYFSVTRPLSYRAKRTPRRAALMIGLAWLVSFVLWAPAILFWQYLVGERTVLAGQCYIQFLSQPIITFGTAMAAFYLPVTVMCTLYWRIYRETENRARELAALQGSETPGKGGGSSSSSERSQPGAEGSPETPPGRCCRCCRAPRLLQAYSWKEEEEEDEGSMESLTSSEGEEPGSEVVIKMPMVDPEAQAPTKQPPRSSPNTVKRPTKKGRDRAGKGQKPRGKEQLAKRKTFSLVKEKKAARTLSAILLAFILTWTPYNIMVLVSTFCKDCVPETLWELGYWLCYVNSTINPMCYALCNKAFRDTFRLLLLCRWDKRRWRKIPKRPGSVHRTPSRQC

[3] = CHO cells stably expressing human M4

SMILES	EC50 [1, 3]	Emax ([1]; relative to ACh)	EC50 [2]	Emax [2]	% Emax cf. ACh, M1 [2]	% Emax cf. ACh, M4 ([1]; CHO cells stably expressing human M4, relative to ACh)
COC(=O)N1CCC2(CC(N3CCC(C4CCCN4C(=O)OC)CC3)C2)C1 (single isomer, unassigned) [2-10 Isomer 2, methyl 2-{4-[1-(methoxycarbonyl)pyrrolidin-2-yl]piperidin-1-yl}-6-azaspiro[3.4]octane-6-carboxylate]	0.2 µM	50%	> 20 µM	19%	–	–
CCOC(=O)N1CCC2(CC(N3CCC(C4CCCN4C)CC3)C2)C1 (single isomer, unassigned) [2-22 Isomer 2, ethyl 2-[4-(1-methylpyrrolidin-2-yl)piperidin-1-yl]-6-azaspiro[3.4]octane-6-carboxylate]	0.316 µM	31%	> 20 µM	7%	–	–
COC(=O)N1CCC2(CC(N3CCC([C@@H]4CCCN4C(=O)N4CC(F)(F)C4)CC3)C2)C1 (single isomer, unassigned) [2-41 Isomer 2]	0.1 µM	91%	2.51 µM	36%	–	–
CCOC(=O)N1CCC2(CC(N3CCC([C@@H]4CCCN4C(=O)OCCF)CC3)C2)C1 (single isomer, unassigned) [2-47 Isomer 2]	1 µM	63%	6.31 µM	45%	–	–
CCOC(=O)N1CCC2(CC(N3CCC([C@@H]4CCCN4C(=O)N(C)CC(F)(F)F)CC3)C2)C1 (single isomer, unassigned) [2-55 Isomer 1]	0.158 µM	67%	> 20 µM	–	15%	–
CCOC(=O)N1CCC2(CC(N3CCC([C@@H]4CCCN4CC)CC3)C2)C1 (single isomer, unassigned) [2-61 Isomer 2]	0.501 µM	40%	> 20 µM	10%	–	–
CCOC(=O)N1CCC2(CC(N3CCC([C@@H]4CCCN4CCC(F)(F)F)CC3)C2)C1 (single isomer, unassigned) [2-70 Isomer 1]	0.158 µM	–	3.98 µM	–	37%	52%
CCOC(=O)N1CCC2(CC(N3CCC([C@@H]4CCCN4CCOC)CC3)C2)C1 (single isomer, unassigned) [2-71 Isomer 2]	0.126 µM	56%	5.01 µM	39%	–	–
CCOC(=O)N1CCC2(CC(N3CCC([C@@H]4CCCN4CC(=O)N(C)C)CC3)C2)C1 (single isomer, unassigned) [2-73 Isomer 2]	0.316 µM	43%	> 20 µM	14%	–	–
CCOC(=O)N1CCC2(CC(N3CCC([C@@H]4CCCN4c4ncccn4)CC3)C2)C1 (single isomer, unassigned) [2-81 Isomer 2]	0.0631 µM	33%	> 20 µM	12%	–	–
CCOC(=O)N1CCC2(CC(N3CCC([C@@H]4CCCN4c4nncs4)CC3)C2)C1 (single isomer, unassigned) [2-83 Isomer 2]	0.01 µM	100%	3.98 µM	55%	–	–
CCOC(=O)N1CCC2(CC(N3CCC(N4CCC[C@H]4C(=O)NC)CC3)C2)C1 (single isomer, unassigned) [2-85 Isomer 2]	> 20 µM	3%	2.51 µM	66%	–	–
CCOC(=O)N1CCC2(CC(N3CCC(N4CC(F)(F)C[C@H]4C(=O)NC)CC3)C2)C1 (single isomer, unassigned) [2-93 Isomer 2]	> 20 µM	3%	> 20 µM	7%	–	–
CCOC(=O)N1CCC2(CC(N3CCC(N4CC(F)(F)C[C@H]4C(=O)N(C)C)CC3)C2)C1 (single isomer, unassigned) [2-94 Isomer 2]	6.76 µM	80%	> 20 µM	7%	–	–
CCOC(=O)N1CCC2(CC(N3CCC(N4CC[C@@H](F)C4)CC3)C2)C1 (single isomer, unassigned) [2-98 Isomer 2]	0.126 µM	45%	> 20 µM	10%	–	–
CCOC(=O)N1CCC2(CC(N3CCC(N4CC[C@H](F)C4)CC3)C2)C1 (single isomer, unassigned) [2-99 Isomer 2]	0.158 µM	54%	> 20 µM	18%	–	–
CCOC(=O)N1CCC2(CC(N3CCC(N4CCC[C@H]4C(F)(F)F)CC3)C2)C1 (single isomer, unassigned) [2-101 Isomer 2]	0.631 µM	98%	10 µM	70%	–	–
CCOC(=O)N1CCC2(CC(N3CCC(N4CC5CC5C4)CC3)C2)C1 (single isomer, unassigned) [2-105 Isomer 2, ethyl 2-[4-(3-azabicyclo[3.1.0]hex-3-yl)piperidin-1-yl]-6-azaspiro[3.4]octane-6-carboxylate]	0.2 µM	38%	> 20 µM	26%	–	–
CCOC(=O)N1CCC2(CC(N3CCC(N4C(=O)CCC4=O)CC3)C2)C1 (single isomer, unassigned) [2-112 Isomer 2, ethyl 2-[4-(2,5-dioxopyrrolidin-1-yl)piperidin-1-yl]-6-azaspiro[3.4]octane-6-carboxylate]	0.251 µM	63%	> 20 µM	7%	–	–
CCOC(=O)N1CCC2(CC(N3CCC(N4C(=O)CC[C@H]4C)CC3)C2)C1 (single isomer, unassigned) [2-113 Isomer 2]	0.0158 µM	113%	0.126 µM	100%	–	–
CCOC(=O)N1CCC2(CC(N3CCC(N4C(=O)CC[C@H]4CC)CC3)C2)C1 (single isomer, unassigned) [2-114 Isomer 2]	0.00794 µM	114%	0.126 µM	103%	–	–
CCOC(=O)N1CCC2(CC(N3CCC(N4C(=O)CC[C@@H]4C)CC3)C2)C1 (single isomer, unassigned) [2-115 Isomer 2]	0.0251 µM	78%	0.2 µM	68%	–	–
CCOC(=O)N1CCC2(CC(N3CCC(N4C(=O)CC[C@@H]4CC)CC3)C2)C1 (single isomer, unassigned) [2-116 Isomer 2]	0.00631 µM	103%	0.0631 µM	109%	–	–
CCOC(=O)N1CCC2(CC(N3CCC(N4C(=O)OC[C@H]4C)CC3)C2)C1 (single isomer, unassigned) [2-118 Isomer 2]	0.126 µM	84%	> 20 µM	33%	–	–
CCOC(=O)N1CCC2(CC(N3CCC(N4C(=O)OC[C@H]4CC)CC3)C2)C1 (single isomer, unassigned) [2-119 Isomer 2]	0.126 µM	84%	2.51 µM	85%	–	–
CCOC(=O)N1CCC2(CC(N3CCC(N4C(=O)OC[C@H]4C(C)C)CC3)C2)C1 (single isomer, unassigned) [2-120 Isomer 2]	0.316 µM	87%	0.398 µM	96%	–	–
CCOC(=O)N1CCC2(CC(N3CCC(N4C(=O)OC[C@@H]4C)CC3)C2)C1 (single isomer, unassigned) [2-121 Isomer 2]	0.2 µM	60%	1 µM	31%	–	–
CCOC(=O)N1CCC2(CC(N3CCC(N4C(=O)OC[C@@H]4CC)CC3)C2)C1 (single isomer, unassigned) [2-122 Isomer 2]	0.158 µM	60%	1 µM	59%	–	–
CCOC(=O)N1CCC2(CC(N3CCC(N4CCN(C)C4=O)CC3)C2)C1 (single isomer, unassigned) [2-125 Isomer 2, ethyl 2-[4-(3-methyl-2-oxoimidazolidin-1-yl)piperidin-1-yl]-6-azaspiro[3.4]octane-6-carboxylate]	0.316 µM	81%	3.98 µM	32%	–	–
CCOC(=O)N1CCC2(CC(N3CCC(N4CCCC4c4ccn[nH]4)CC3)C2)C1 (single isomer, unassigned) [2-126 Isomer 2, ethyl 2-{4-[2-(1H-pyrazol-5-yl)pyrrolidin-1-yl]piperidin-1-yl}-6-azaspiro[3.4]octane-6-carboxylate]	0.0794 µM	60%	> 20 µM	15%	–	–
